# Measurements reported in publication PMC7654703 (ACS chemical biology, 2020).
# Experiments:
# TNFα-TNFR1 interaction = TNFα-TNFR1 interaction (Homo sapiens, UniProt P01375); assay: TNFα-TNFR1 competition ELISA; type: binding; conditions: 100 μM SPD304 alone
# [1] = optical sensor assay; cited from earlier work
# [2] = system: TNFα-mediated death of WEHI-13VAR cells; assay: WEHI-13VAR cell viability assay; type: cell-based, mouse; conditions: pre-incubation of TNFα with 20 μM SPD304 alone; final 20 nM after dilution
# [3] = biological target: bicyclic 19-mer peptide (synthetic construct); conditions: cited from earlier work
# TNFα trimer = TNFα trimer (Homo sapiens, UniProt P01375); assay: TNFα oligomerization state by SEC; type: biochemical; conditions: 1 μM TNFα, additive without peptide (0.05% TWEEN20, one hour RT; 10 μM SPD304)
# Chain of TNFα trimer (P01375 77-233 limits assumed): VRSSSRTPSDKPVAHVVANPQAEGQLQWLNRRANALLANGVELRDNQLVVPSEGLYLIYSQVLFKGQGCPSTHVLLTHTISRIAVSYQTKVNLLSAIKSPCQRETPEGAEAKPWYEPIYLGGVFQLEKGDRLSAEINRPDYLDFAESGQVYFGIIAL
# Chain of TNFα-TNFR1 interaction (P01375 77-233 limits assumed): as above
# Chain of TNFα (P01375 77-233): as the sequence (P01375 77-233 limits assumed) above
compound,measurement,setting,value
Cc1cc2occ(CN(C)CCN(C)Cc3cn(-c4cccc(C(F)(F)F)c4)c4ccccc34)c(=O)c2cc1C [SPD304],TNFα binding to TNFR1 blocked,TNFα-TNFR1 interaction,~ 30%
same,critical aggregation concentration (CAC),[1],10 µM
same,block of TNFα-mediated cell death by additive alone,[2],did not substantially block
TNFα (from UniProt P01375),Kd,[3],5 nM
TWEEN20,effect of additive alone on TNFα trimer by SEC,TNFα trimer,did not change
